Source: ChEMBL document CHEMBL5052852, “Substituted hydantoinamides as adamts7 antagonists” (2021)

Legend:
[1] = Inhibition of recombinant rat/human ADAMTS12 hybrid using HiLyteFluor-488 DELSSMVLELRGLRT-K(QXL520)-E-NH2 as substrate incubated for 120 mins and measured by FRET assay
[2] = Inhibition of recombinant rat/human ADAMTS7 hybrid using HiLyteFluor-488 DELSSMVLELRGLRT-K(QXL520)-E-NH2 as substrate incubated for 120 mins and measured by FRET assay

Structure (SMILES)	IC50 [1] [nM]	IC50 [2] [nM]
N#Cc1ccc(-n2ncc(C(=O)NC[C@@]3(C4CC4)NC(=O)NC3=O)n2)cc1	17000	40
O=C1NC(=O)[C@](CNC(=O)c2cnn(-c3ccc(C(F)(F)F)c(F)c3)n2)(C2CC2)N1	4600	120
O=C1NC(=O)[C@](CNC(=O)c2coc(-c3ccc(F)cc3)n2)(C2CC2)N1	1700	55
O=C1NC(=O)[C@](CNC(=O)c2cnn(-c3ccc(Cl)cc3F)n2)(C2CC2)N1	1000	60
O=C1NC(=O)[C@](CNC(=O)c2cnn(-c3ccccc3F)n2)(C2CC2)N1	7600	180
O=C1NC(=O)[C@](CNC(=O)c2cnn(-c3cc(F)ccc3F)n2)(C2CC2)N1	5500	110
O=C1NC(=O)[C@](CNC(=O)c2cnn(-c3ccccn3)n2)(C2CC2)N1	7650	98
O=C1NC(=O)C(CNC(=O)c2cnn(-c3ccc(F)c(F)c3)n2)(C2CCC2)N1 (centres undefined)	890	6
O=C1NC(=O)[C@](CNC(=O)c2cnn(-c3ncc(F)cc3F)n2)(C2CC2)N1	6200	190
COc1ccc(-n2ncc(C(=O)NC[C@@]3(C4CC4)NC(=O)NC3=O)n2)cc1	6000	100
O=C1NC(=O)[C@](CNC(=O)c2cnn(-c3nc4ccccc4s3)n2)(C2CC2)N1	11000	190
Cc1cccc(-n2ncc(C(=O)NC[C@@]3(C4CC4)NC(=O)NC3=O)n2)c1	2200	170
O=C1NC(=O)[C@](CNC(=O)c2cnn(-c3ccc(F)cc3Cl)n2)(C2CC2)N1	17000	320
O=C1NC(=O)[C@](CNC(=O)c2cnn(-c3ccccc3)c2)(C2CC2)N1	1800	129
O=C1NC(=O)[C@](CNC(=O)c2nnc(-c3ccc(F)cc3)o2)(C2CC2)N1	12000	350
O=C1NC(=O)C(CNC(=O)c2cnn(-c3ccc(F)cc3)n2)(C2CCCCC2)N1 (centres undefined)	4100	14
O=C1NC(=O)C(CNC(=O)c2cnn(-c3ccc(F)cc3)n2)(c2cscn2)N1 (centres undefined)	2500	12
Cn1cc(-c2cc(C(=O)NC[C@@]3(C4CC4)NC(=O)NC3=O)on2)cn1	4690	52
O=C1NC(=O)[C@](CNC(=O)c2cnn(-c3ccc(F)cc3)n2)(C2CC2)N1	1420	26
CC(CO)C1(CNC(=O)c2cnn(-c3ccccc3)n2)NC(=O)NC1=O (centres undefined)	17000	190
O=C1NC(=O)[C@](CNC(=O)c2cc(-c3cnn(CC4CC4)c3)no2)(C2CC2)N1	50000	550
O=C1NC(=O)[C@](CNC(=O)c2cnn(-c3ccc(Cl)c(Cl)c3)n2)(C2CC2)N1	910	35
CS(=O)(=O)c1ccc(-n2ncc(C(=O)NC[C@@]3(C4CC4)NC(=O)NC3=O)n2)cc1	67000	870
Cn1ccnc1C1(CNC(=O)c2cnn(-c3ccc(F)c(F)c3)n2)NC(=O)NC1=O (centres undefined)	46	3
O=C1NC(=O)C(CNC(=O)c2nc(-c3ccccc3)no2)(CC2CC2)N1 (centres undefined)	2900	250
C[C@@H](NC(=O)c1cnn(-c2ccccc2)n1)C1(C2CC2)NC(=O)NC1=O (some centres undefined)	50000	710

Structure (SMILES)	IC50 [1] [nM]	IC50 [2] [nM]
O=C1NC(=O)C(CNC(=O)c2cnn(-c3ccc(Cl)cc3)n2)(C2CCC2)N1 (centres undefined)	980	10
O=C1NC(=O)[C@](CNC(=O)c2cnn(-c3cnsc3)n2)(C2CC2)N1	7400	230
O=C1NC(=O)[C@](CNC(=O)c2cnn(-c3ccc(Cl)cc3Cl)n2)(C2CC2)N1	7100	130
O=C1NC(=O)C(CNC(=O)c2cnn(-c3cccc(Cl)c3)n2)(C2CCC2)N1 (centres undefined)	2200	48
O=C1NC(=O)[C@](CNC(=O)c2cnn(-c3cccc(F)c3)n2)(C2CC2)N1	580	13
Cc1ccccc1-n1ncc(C(=O)NC[C@@]2(C3CC3)NC(=O)NC2=O)n1	12000	980
O=C1NC(=O)[C@](CNC(=O)c2cnn(-c3ccc(F)c(Cl)c3)n2)(C2CC2)N1	250	5
O=C1NC(=O)[C@](CNC(=O)c2cnn(-c3ccccc3Cl)n2)(C2CC2)N1	10000	470
CC(C)(C)CC1(CNC(=O)c2cnn(-c3ccccc3)n2)NC(=O)NC1=O (centres undefined)	5000	250
O=C1NC(=O)[C@](CNC(=O)c2cnn(-c3cc(F)c(F)c(F)c3)n2)(C2CC2)N1	1100	25
O=C1NC(=O)C(CNC(=O)c2cnn(-c3ccc(Cl)c(F)c3)n2)(C2CCC2)N1 (centres undefined)	975	6
O=C1NC(=O)C(CNC(=O)c2cnn(-c3cccc(F)c3)n2)(C2CCC2)N1 (centres undefined)	2200	8
O=C1NC(=O)[C@](CNC(=O)c2cnn(-c3ccccc3)n2)(C2CC2)N1	1450	69
Cc1ccc(-n2ncc(C(=O)NC[C@@]3(C4CC4)NC(=O)NC3=O)n2)cc1	950	47
O=C1NC(=O)[C@](CNC(=O)c2cnn(-c3ccc(Br)cc3)n2)(C2CC2)N1	1400	58
O=C1NC(=O)[C@](CNC(=O)c2cnn(-c3ccc(F)cn3)n2)(C2CC2)N1	4750	140
O=C1NC(=O)C(CNC(=O)c2cnn(-c3cc(F)c(F)c(F)c3)n2)(C2CCC2)N1 (centres undefined)	3100	16
O=C1NC(=O)[C@](CNC(=O)c2cnn(-c3ncccc3F)n2)(C2CC2)N1	14000	7
O=C1NC(=O)[C@](CNC(=O)c2cnn(-c3cccc(Cl)c3)n2)(C2CC2)N1	450	21
O=C1NC(=O)[C@](CNC(=O)c2cnn(-c3ccc(F)cc3F)n2)(C2CC2)N1	4250	41
O=C1NC(=O)[C@](CNC(=O)c2cnn(-c3ccc(Cl)c(F)c3)n2)(C2CC2)N1	500	12
O=C1NC(=O)C(CNC(=O)c2cnn(-c3ccc(F)cc3F)n2)(C2CCC2)N1 (centres undefined)	8500	63
N#Cc1cccc(-n2ncc(C(=O)NC[C@@]3(C4CC4)NC(=O)NC3=O)n2)c1	600	32
O=C1NC(=O)C(CNC(=O)c2cnn(-c3ccc(F)c(F)c3)n2)(c2nccs2)N1 (centres undefined)	310	7
Cn1ccnc1C1(CNC(=O)c2cnn(-c3ccc(Cl)c(F)c3)n2)NC(=O)NC1=O (centres undefined)	41	2
O=C1NC(=O)[C@](CNC(=O)c2cnn(-c3ccc(Cl)cc3)n2)(C2CC2)N1	480	26

Structure (SMILES)	IC50 [1] [nM]	IC50 [2] [nM]
O=C1NC(=O)[C@](CNC(=O)c2cnn(-c3ccc(OC(F)(F)F)cc3)n2)(C2CC2)N1	> 50000	190
C[C@H](NC(=O)c1cnn(-c2ccccc2)n1)C1(C2CC2)NC(=O)NC1=O (some centres undefined)	25000	980
O=C1NC(=O)[C@](CNC(=O)c2cnn(-c3cnccn3)n2)(C2CC2)N1	24000	355
O=C1NC(=O)[C@](CNC(=O)c2cnn(-c3cccc(F)c3F)n2)(C2CC2)N1	3100	74
N#Cc1cccc(-n2ncc(C(=O)NCC3(C4CCC4)NC(=O)NC3=O)n2)c1 (centres undefined)	4000	78
O=C1NC(=O)C(CNC(=O)c2cnn(-c3ccc(F)c(Cl)c3)n2)(C2CCC2)N1 (centres undefined)	1800	18
O=C1NC(=O)[C@](CNC(=O)c2cnc(-c3ccccc3)o2)(C2CC2)N1	11300	550
CC(C)C1(CNC(=O)c2cnn(-c3ccc(F)c(Cl)c3)n2)NC(=O)NC1=O (centres undefined)	12000	190
O=C1NC(=O)[C@](CNC(=O)c2cnn(-c3ccc(F)c(F)c3)n2)(C2CC2)N1	175	7
O=C1NC(=O)C(CNC(=O)c2cnn(-c3ccccc3)n2)(c2ccncc2)N1 (racemic)	2800	20
O=C1NC(=O)C(CNC(=O)c2cnn(-c3ccccc3)n2)(c2ccccn2)N1 (racemic)	4800	26
CC(C)C1(CNC(=O)c2cnn(-c3ccccc3)n2)NC(=O)NC1=O (racemic)	14500	265
CC(C)(C)C1(CNC(=O)c2cnn(-c3ccc(C(F)(F)F)c(F)c3)n2)NC(=O)NC1=O (racemic)	50000	210
CC(C)(C)C1(CNC(=O)c2cnn(-c3ccc(C(F)(F)F)cc3)n2)NC(=O)NC1=O (racemic)	50000	620
CC(C)(C)C1(CNC(=O)c2cnn(-c3cccc(F)c3)n2)NC(=O)NC1=O (racemic)	6600	260
CC(C)(C)C1(CNC(=O)c2cnc(-c3ccccc3)o2)NC(=O)NC1=O (racemic)	50000	480
O=C1NC(=O)C(CNC(=O)c2cnn(-c3ccccc3)n2)(C2CCCOC2)N1 (racemic)	8500	62
O=C1NC(=O)C(CNC(=O)c2cnn(-c3ccc(F)cc3)n2)(c2ccccn2)N1 (racemic)	3000	10
O=C1NC(=O)C(CNC(=O)c2cnn(-c3ccc(F)cc3)n2)(c2cccnc2)N1 (racemic)	4500	30
O=C1NC(=O)C(CNC(=O)c2cnn(-c3ccc(F)cc3)n2)(c2ccncc2)N1 (racemic)	2900	140
O=C1NC(=O)C(CNC(=O)c2cnn(-c3ccccc3)n2)(C2CCOC2)N1 (racemic)	22000	170
Cn1ccnc1C1(CNC(=O)c2cnn(-c3ccccc3)n2)NC(=O)NC1=O (stereo in doubt)	320	
CC(C)C1(CNC(=O)c2cnn(-c3ccc(F)cc3F)n2)NC(=O)NC1=O (stereo in doubt)	13000	
O=C1NC(=O)C(CNC(=O)c2cnn(-c3ccc(F)cc3)n2)(c2ccccn2)N1 (stereo in doubt; form 1)	1900	
